In PubChem BioAssay AID2060893 (Molecular Pharmacology Branch, DTP, NCI, 2025):
Values belong to the molecule of their own block, whether it stands above or below them.

Test system: K86415-001-R-J1-PDC complex spheroids, viability
Test: Anticancer human tumor K86415-001-R-J1-PDC patient-derived lung adenocarcinoma cell line growth inhibition [RAS]
Conditions: for viability, T/C: stronger effect = lower value
In short: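 Agents were tested in combination matrices in half-log decrements from a top concentration at or near clinical Cmax (10 microM if undetermined). Targets were multi-cell spheroids of tumour lines plus HUVEC and MSC stromal cells.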

[1] = curve of first compound, second compound 0.000949 µM
[2] = curve of first compound, second compound 0.003 µM
[3] = curve of first compound, second compound 0.00949 µM
[4] = curve of first compound, second compound 0.03 µM
[5] = curve of first compound, second compound 0.0949 µM
[6] = curve of first compound, second compound 0.3 µM
[7] = second compound 0.000949 µM, first compound 0.0316 µM
[8] = second compound 0.000949 µM, first compound 0.1 µM
[9] = second compound 0.000949 µM, first compound 0.316 µM
[10] = second compound 0.000949 µM, first compound 1 µM
[11] = second compound 0.003 µM, first compound 0.0316 µM
[12] = second compound 0.003 µM, first compound 0.1 µM
[13] = second compound 0.003 µM, first compound 0.316 µM
[14] = second compound 0.003 µM, first compound 1 µM
[15] = second compound 0.00949 µM, first compound 0.0316 µM
[16] = second compound 0.00949 µM, first compound 0.1 µM
[17] = second compound 0.00949 µM, first compound 0.316 µM
[18] = second compound 0.00949 µM, first compound 1 µM
[19] = second compound 0.03 µM, first compound 0.0316 µM
[20] = second compound 0.03 µM, first compound 0.1 µM
[21] = second compound 0.03 µM, first compound 0.316 µM
[22] = second compound 0.03 µM, first compound 1 µM
[23] = second compound 0.0949 µM, first compound 0.0316 µM
[24] = second compound 0.0949 µM, first compound 0.1 µM
[25] = second compound 0.0949 µM, first compound 0.316 µM
[26] = second compound 0.0949 µM, first compound 1 µM
[27] = second compound 0.3 µM, first compound 0.0316 µM
[28] = second compound 0.3 µM, first compound 0.1 µM
[29] = second compound 0.3 µM, first compound 0.316 µM
[30] = second compound 0.3 µM, first compound 1 µM
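Further: spheroids exposed to agents for seven days before readout.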

IC50 [1]: 31.6 nM
IC50 [2]: < 31.6 nM
IC50 [3]: < 31.6 nM
IC50 [4]: < 31.6 nM
IC50 [5]: < 31.6 nM
IC50 [6]: < 31.6 nM
SMILES: CCC(CC)c1cc(NC2CCC(N)C2)n2nccc2n1 (stereo not given) + CCn1c(-c2cccnc2C(C)OC)c2c3cc(ccc31)N1CCOC(CC(NC(=O)C(C(C)C)N(C)C(=O)C3(F)CCN(C(=O)C#CC(C)(C)N(C)C)CC3)C(=O)N3CCCC(N3)C(=O)OCC(C)(C)C2)C1
viability, T/C [7]: 37.5%
viability, T/C [8]: 40.4%
viability, T/C [9]: 39.2%
viability, T/C [10]: 61.9%
viability, T/C (second compound 0.000949 µM, first compound 3.16 µM): 2.95%
viability, T/C (second compound 0.000949 µM, first compound 10 µM): 2.43%
viability, T/C [11]: 14.9%
viability, T/C [12]: 14.6%
viability, T/C [13]: 13%
viability, T/C [14]: 20.1%
viability, T/C (second compound 0.003 µM, first compound 3.16 µM): 3.32%
viability, T/C (second compound 0.003 µM, first compound 10 µM): 3.8%
viability, T/C [15]: 15.2%
viability, T/C [16]: 12.3%
viability, T/C [17]: 15%
viability, T/C [18]: 20.3%
viability, T/C (second compound 0.00949 µM, first compound 3.16 µM): 2.22%
viability, T/C (second compound 0.00949 µM, first compound 10 µM): 3.83%
viability, T/C [19]: 12.6%
viability, T/C [20]: 12.1%
viability, T/C [21]: 15.5%
viability, T/C [22]: 13.3%
viability, T/C (second compound 0.03 µM, first compound 3.16 µM): 1.81%
viability, T/C (second compound 0.03 µM, first compound 10 µM): 3.54%
viability, T/C [23]: 12.4%
viability, T/C [24]: 13.6%
viability, T/C [25]: 15.6%
viability, T/C [26]: 13.9%
viability, T/C (second compound 0.0949 µM, first compound 3.16 µM): 1.94%
viability, T/C (second compound 0.0949 µM, first compound 10 µM): 3.52%
viability, T/C [27]: 11.8%
viability, T/C [28]: 14.9%
viability, T/C [29]: 12.4%
viability, T/C [30]: 9.04%
viability, T/C (second compound 0.3 µM, first compound 3.16 µM): 2.28%
viability, T/C (second compound 0.3 µM, first compound 10 µM): 3.42%

IC50 (curve of compound): 52.6 nM [middle of 4 runs]
SMILES: CC(C)n1nc(-c2ccc3oc(N)nc3c2)c2c(N)ncnc21
viability, T/C (compound 0.000316 µM): 108% [middle of 4 runs]
viability, T/C (compound 0.001 µM): 104% [middle of 4 runs]
viability, T/C (compound 0.00316 µM): 104% [middle of 4 runs]
viability, T/C (compound 0.01 µM): 96.1% [middle of 4 runs]
viability, T/C (compound 0.0316 µM): 64.5% [middle of 4 runs]
viability, T/C (compound 0.1 µM): 32.2% [middle of 4 runs]

IC50 (curve of first compound, second compound 0.00316 µM): < 3.16 nM
IC50 (curve of first compound, second compound 0.01 µM): < 3.16 nM
IC50 (curve of first compound, second compound 0.0316 µM): < 3.16 nM
IC50 (curve of first compound, second compound 0.1 µM): < 3.16 nM
IC50 (curve of first compound, second compound 0.316 µM): < 3.16 nM
IC50 (curve of first compound, second compound 1 µM): < 3.16 nM
SMILES: C=CC(=O)Nc1cc(Nc2nccc(-c3cn(C)c4ccccc34)n2)c(OC)cc1N(C)CCN(C)C + C=CC(=O)N1CCN(c2nc(OCC3CCCN3C)nc3c(F)c(-c4nc(N)cc(C)c4C(F)(F)F)c(Cl)cc23)C(C)C1
viability, T/C (second compound 0.00316 µM, first compound 0.00316 µM): 19.7%
viability, T/C (second compound 0.00316 µM, first compound 0.01 µM): 17.1%
viability, T/C (second compound 0.00316 µM, first compound 0.0316 µM): 15.6%
viability, T/C (second compound 0.00316 µM, first compound 0.1 µM): 13.2%
viability, T/C (second compound 0.00316 µM, first compound 0.316 µM): 8.17%
viability, T/C (second compound 0.00316 µM, first compound 1 µM): 7.25%
viability, T/C (second compound 0.01 µM, first compound 0.00316 µM): 11.2%
viability, T/C (second compound 0.01 µM, first compound 0.01 µM): 10.3%
viability, T/C (second compound 0.01 µM, first compound 0.0316 µM): 11%
viability, T/C (second compound 0.01 µM, first compound 0.1 µM): 8.19%
viability, T/C (second compound 0.01 µM, first compound 0.316 µM): 6.56%
viability, T/C (second compound 0.01 µM, first compound 1 µM): 6.11%
viability, T/C (second compound 0.0316 µM, first compound 0.00316 µM): 10.1%
viability, T/C (second compound 0.0316 µM, first compound 0.01 µM): 11.4%
viability, T/C (second compound 0.0316 µM, first compound 0.0316 µM): 8.27%
viability, T/C (second compound 0.0316 µM, first compound 0.1 µM): 6%
viability, T/C (second compound 0.0316 µM, first compound 0.316 µM): 5.17%
viability, T/C (second compound 0.0316 µM, first compound 1 µM): 5.86%
viability, T/C (second compound 0.1 µM, first compound 0.00316 µM): 10%
viability, T/C (second compound 0.1 µM, first compound 0.01 µM): 9.55%
viability, T/C (second compound 0.1 µM, first compound 0.0316 µM): 8.9%
viability, T/C (second compound 0.1 µM, first compound 0.1 µM): 7.91%
viability, T/C (second compound 0.1 µM, first compound 0.316 µM): 5.85%
viability, T/C (second compound 0.1 µM, first compound 1 µM): 5.65%
viability, T/C (second compound 0.316 µM, first compound 0.00316 µM): 8.48%
viability, T/C (second compound 0.316 µM, first compound 0.01 µM): 10.5%
viability, T/C (second compound 0.316 µM, first compound 0.0316 µM): 11.3%
viability, T/C (second compound 0.316 µM, first compound 0.1 µM): 6.83%
viability, T/C (second compound 0.316 µM, first compound 0.316 µM): 5.85%
viability, T/C (second compound 0.316 µM, first compound 1 µM): 5.41%
viability, T/C (second compound 1 µM, first compound 0.00316 µM): 11%
viability, T/C (second compound 1 µM, first compound 0.01 µM): 10.2%
viability, T/C (second compound 1 µM, first compound 0.0316 µM): 7.67%
viability, T/C (second compound 1 µM, first compound 0.1 µM): 8.2%
viability, T/C (second compound 1 µM, first compound 0.316 µM): 7.08%
viability, T/C (second compound 1 µM, first compound 1 µM): 6.01%

IC50 [1]: < 3.16 nM
IC50 [2]: < 3.16 nM
IC50 [3]: < 3.16 nM
IC50 [4]: < 3.16 nM
IC50 [5]: < 3.16 nM
IC50 [6]: < 3.16 nM
SMILES: C=CC(=O)Nc1cc(Nc2nccc(-c3cn(C)c4ccccc34)n2)c(OC)cc1N(C)CCN(C)C + CCn1c(-c2cccnc2C(C)OC)c2c3cc(ccc31)N1CCOC(CC(NC(=O)C(C(C)C)N(C)C(=O)C3(F)CCN(C(=O)C#CC(C)(C)N(C)C)CC3)C(=O)N3CCCC(N3)C(=O)OCC(C)(C)C2)C1
viability, T/C (second compound 0.000949 µM, first compound 0.00316 µM): 34.5%
viability, T/C (second compound 0.000949 µM, first compound 0.01 µM): 31.8%
viability, T/C [7]: 17%
viability, T/C [8]: 25.6%
viability, T/C [9]: 18.3%
viability, T/C [10]: 9.09%
viability, T/C (second compound 0.003 µM, first compound 0.00316 µM): 14.9%
viability, T/C (second compound 0.003 µM, first compound 0.01 µM): 11.9%
viability, T/C [11]: 10.1%
viability, T/C [12]: 8.82%
viability, T/C [13]: 6.15%
viability, T/C [14]: 5.63%
viability, T/C (second compound 0.00949 µM, first compound 0.00316 µM): 11.9%
viability, T/C (second compound 0.00949 µM, first compound 0.01 µM): 11.1%
viability, T/C [15]: 11.4%
viability, T/C [16]: 7.32%
viability, T/C [17]: 5.35%
viability, T/C [18]: 5.16%
viability, T/C (second compound 0.03 µM, first compound 0.00316 µM): 10.2%
viability, T/C (second compound 0.03 µM, first compound 0.01 µM): 11.1%
viability, T/C [19]: 9.36%
viability, T/C [20]: 8.38%
viability, T/C [21]: 5.05%
viability, T/C [22]: 4.02%
viability, T/C (second compound 0.0949 µM, first compound 0.00316 µM): 12.5%
viability, T/C (second compound 0.0949 µM, first compound 0.01 µM): 11.2%
viability, T/C [23]: 10.2%
viability, T/C [24]: 8.51%
viability, T/C [25]: 5.53%
viability, T/C [26]: 5.3%
viability, T/C (second compound 0.3 µM, first compound 0.00316 µM): 13.1%
viability, T/C (second compound 0.3 µM, first compound 0.01 µM): 11.4%
viability, T/C [27]: 11.9%
viability, T/C [28]: 5.28%
viability, T/C [29]: 5.37%
viability, T/C [30]: 4.83%

IC50 (curve of compound): 122 nM [middle of 4 runs]
SMILES: Cc1nc(N2CCC3(CC2)COC(C)C3N)c(CO)nc1Sc1ccnc(N)c1Cl (stereo not given)
viability, T/C (compound 0.0316 µM): 76.3% [middle of 4 runs]
viability, T/C (compound 0.1 µM): 53.6% [middle of 4 runs]
viability, T/C (compound 0.316 µM): 36.6% [middle of 4 runs]
viability, T/C (compound 1 µM): 27.2% [middle of 4 runs]
viability, T/C (compound 3.16 µM): 24.6% [middle of 4 runs]
viability, T/C (compound 10 µM): 20.1% [middle of 4 runs]
